Values after ≈ are worked out from the molar mass of the structure shown. Where two headings read alike, the source gives them in different places.
How the values were obtained:
[1] = Rat pharmacokinetics in plasma, non compartmental analysis; assay type: in vivo, male rats
Description: The pharmacokinetic profiles in plasma of nifuratel and nifuratel sulfoxide were tested after intravenous administration (2mg/kg) and oral gavage (15mg/kg) in male rats. […]

[2] = Metabolic profiling of nifuratel in human urines by LC/MS/MS after oral administration; assay type: in vivo
Description: As a matter of fact, metabolic profiling of nifuratel, following oral administration, was assessed in human urines by liquid chromatography/tandem mass spectrometry (LC/MS/MS).
More in details, urines of two subjects treated orally with nifuratel were collected at the following time-points: pre-dose, 0-4, 4-8, 8-12, 12-24, 24-36 and 36-48 h after treatment.
Nifuratel was not detected in any of the urine samples. […] Based on such a discovery, the applicant has performed both in vitro and in vivo tests in order to establish whether nifuratel sulfoxide is endowed with anti-bacterial activity.

[3] = test system: Lactobacillus iners ATCC 55195; test: MIC by broth microdilution method (CLSI M07-A8 / M11-A7); assay type: cell-based; settings: ATCC55195
Description: The in vitro activity of nifuratel sulfoxide racemate, R-nifuratel sulfoxide and S-nifuratel sulfoxide was tested on a panel of bacteria, which included both Gram positive and Gram negative bacteria. The minimum inhibitory concentrations (MICs) of the compounds were determined by the broth microdilution method or by the agar dilution method, according to the National Committee for Clinical Laboratory Standards (CLSI) reference methods […]-A8 and M11-A7.

Gardnerella vaginalis = test: MIC by agar dilution method (CLSI M07-A8 / M11-A7); efficiency coefficient derived; assay type: cell-based; settings: for MIC: Gardnerella vaginalis
Description: (§1) The in vitro activity of nifuratel sulfoxide racemate, R-nifuratel sulfoxide and S-nifuratel sulfoxide was tested on a panel of bacteria, which included both Gram positive and Gram negative bacteria.
(§2) The minimum inhibitory concentrations (MICs) of the compounds were determined by the broth microdilution method or by the agar dilution method, according to the National Committee for Clinical Laboratory Standards (CLSI) reference methods M07-A8 and M11-A7.
(§3) The efficiency coefficient (EC) of nifuratel sulfoxide vs. nifuratel was calculated for each tested strain as follows: EC = relative oral bioavailability*[…] [formula]
(§4) Where: • nifS = nifuratel sulfoxide • nif = nifuratel • EC = 1 is indicative of equivalent efficiency between nifuratel sulfoxide and nifuratel. • EC < 1 is indicative of a lower efficiency of nifuratel sulfoxide vs. nifuratel • EC > 1 is indicative of a higher efficiency of nifS vs. nif

Atopobium vaginae = test: as above; assay type: cell-based; settings: for MIC: Fannyhessea vaginae
Description: as §1, §2, §3, §4

[4] = test system: Staphylococcus aureus (MRSA); test: MIC by broth microdilution method (CLSI M07-A8 / M11-A7); efficiency coefficient derived; assay type: cell-based
Description: as §1, §2, §3, §4

[5] = test system: Neisseria gonorrhoeae ATCC 19424; test: as above; assay type: cell-based; settings: ATCC19424
Description: as §1, §2, §3, §4

[6] = test system: Salmonella paratyphi B ATCC 10719; test: as above; assay type: cell-based; settings: Salmonella enterica, read-out: MIC
Description: as §1, §2, §3, §4

[7] = test system: Salmonella typhimurium ATCC 14028; test: as above; assay type: cell-based; settings: Salmonella enterica
Description: as §1, §2, §3, §4

[8] = test system: Micrococcus pyogenes ATCC 11631; test: as above; assay type: cell-based; settings: Staphylococcus aureus, ATCC11631
Description: as §1, §2, §3, §4

[9] = test system: Klebsiella pneumonia ATCC 10031; test: as above; assay type: cell-based; settings: Klebsiella pneumoniae, ATCC10031
Description: as §1, §2, §3, §4

[10] = test system: Escherichia coli ATCC 11775; test: as above; assay type: cell-based; settings: ATCC11775
Description: as §1, §2, §3, §4

[11] = test system: Shigella sonnei ATCC 11060; test: as above; assay type: cell-based; settings: ATCC11060, read-out: MIC
Description: as §1, §2, §3, §4

[12] = test system: Proteus mirabilis ATCC 14153; test: as above; assay type: cell-based; settings: ATCC14153
Description: as §1, §2, §3, §4

[13] = 2mg/kg intravenous administration, male rats
[14] = 15mg/kg oral administration, male rats
[15] = IV (2mg/Kg), male rats, plasma, mean
[16] = rat, in vivo, IV (2mg/Kg), male rats, plasma, mean
[17] = rat, in vivo, XOS (15mg/kg), oral gavage, male rats, plasma, mean
[18] = male, rat, in vivo, iv, 2 mg/kg
[19] = male, rat, in vivo, po, 15 mg/kg

## C[S+]([O-])CC1CN(/N=C/c2ccc([N+](=O)[O-])o2)C(=O)O1 (racemic) [Nifuratel sulfoxide, nifuratel sulfoxide]
[1]; [13]
  AUC, folds higher than nifuratel: over 5 folds
  Cmax, folds higher than nifuratel: 4 folds
  clearance, folds slower with respect to nifuratel: over 5 folds
[1]; [14]
  AUC, folds higher than nifuratel: 30 folds
  Cmax, folds higher than nifuratel: 37 folds
  increased bioavailability versus nifuratel: 5 fold
[1]; [15]
  T1/7: 15.5 min
  Tlast: 120 min
  Vss: 0.865 kg⁻¹
[1]; XOS (15mg/kg), oral gavage, male rats
  Mean Fpo: 11%
[1]; XOS (15mg/kg), oral gavage, male rats, plasma, mean
  Tlast: 240 min
[1]; [16]
  AUC(0-inf): 703 ng·h/mL
  AUC(0-t): 700 ng·h/mL
  MRT: 17.7 min
  clearance: 47.5 mL/min/kg
[1]; rat, in vivo, IV (2mg/Kg), male rats, plasma, mean, read-out: C0
  C0: 2820 ng/mL
[1]; rat, in vivo, IV (2mg/Kg), male rats, plasma, mean, read-out: Clast
  concentration at 120 min: 73 ng/mL
[1]; rat, in vivo, IV (2mg/Kg), male rats, plasma, mean, read-out: Cmax
  Cmax: 2220 ng/mL
[1]; rat, in vivo, IV (2mg/Kg), male rats, plasma, mean, read-out: Tmax (converted)
  Tmax: 2 min
[1]; [17]
  AUC(0-t): 605 ng·h/mL
  MRT: 94 min
  half-life: 128 min
[1]; rat, in vivo, XOS (15mg/kg), oral gavage, male rats, plasma, mean, read-out: Clast
  concentration at 240 min: 80.6 ng/mL
[1]; rat, in vivo, XOS (15mg/kg), oral gavage, male rats, plasma, mean, read-out: Cmax
  Cmax: 298 ng/mL
[1]; rat, in vivo, XOS (15mg/kg), oral gavage, male rats, plasma, mean, read-out: Tmax (converted)
  Tmax: 23 min
[2]; two subjects treated orally with nifuratel, attributed by mass spectrometry
  metabolite found in urine: major metabolite
[3]; broth microdilution, Lactobacillus iners ATCC 55195, read-out: MIC
  MIC: 16 µg/mL (≈ 53.1 µM)
Gardnerella vaginalis; ATCC14018, agar dilution, strain ATCC 14018, read-out: MIC
  MIC: 8 µg/mL (≈ 26.6 µM)
Gardnerella vaginalis; agar dilution, strain C2, read-out: MIC
  MIC: 16 µg/mL (≈ 53.1 µM)
Gardnerella vaginalis; agar dilution, strain D2, read-out: MIC
  MIC: 32 µg/mL (≈ 106 µM)
Gardnerella vaginalis; agar dilution, strain E2, read-out: MIC
  MIC: 32 µg/mL (≈ 106 µM)
Gardnerella vaginalis; agar dilution, strain G2, read-out: MIC
  MIC: 32 µg/mL (≈ 106 µM)
Gardnerella vaginalis; agar dilution, strain H2, read-out: MIC
  MIC: 8 µg/mL (≈ 26.6 µM)
Gardnerella vaginalis; agar dilution, strain J2, read-out: MIC
  MIC: 32 µg/mL (≈ 106 µM)
Gardnerella vaginalis; agar dilution, strain K2, read-out: MIC
  MIC: 32 µg/mL (≈ 106 µM)
Gardnerella vaginalis; tested Gardnerella vaginalis strains
  in vitro antimicrobial activity (in words): good activity
Atopobium vaginae; CCUG38953, agar dilution, strain CCUG 38953, read-out: MIC
  MIC: 2 µg/mL (≈ 6.64 µM)
Atopobium vaginae; CCUG39382, agar dilution, strain CCUG 39382, read-out: MIC
  MIC: 1 µg/mL (≈ 3.32 µM)
Atopobium vaginae; CCUG42099, agar dilution, strain CCUG 42099, read-out: MIC
  MIC: 2 µg/mL (≈ 6.64 µM)
Atopobium vaginae; CCUG43049, agar dilution, strain CCUG 43049, read-out: MIC
  MIC: 4 µg/mL (≈ 13.3 µM)
Atopobium vaginae; CCUG44061, agar dilution, strain CCUG 44061, read-out: MIC
  MIC: 1 µg/mL (≈ 3.32 µM)
Atopobium vaginae; CCUG44156, agar dilution, strain CCUG 44156, read-out: MIC
  MIC: 1 µg/mL (≈ 3.32 µM)
Atopobium vaginae; CCUG48515, agar dilution, strain CCUG 48515, read-out: MIC
  MIC: 2 µg/mL (≈ 6.64 µM)
Atopobium vaginae; CCUG55226, agar dilution, strain CCUG 55226, read-out: MIC
  MIC: 4 µg/mL (≈ 13.3 µM)
Atopobium vaginae; CCUG55227, agar dilution, strain CCUG 55227, read-out: MIC
  MIC: 4 µg/mL (≈ 13.3 µM)
Atopobium vaginae; tested Atopobium vaginae strains
  in vitro antimicrobial activity (in words): good activity
[4]; broth microdilution, Staphylococcus aureus (MRSA), read-out: MIC
  MIC: 16 µg/mL (≈ 53.1 µM)
[5]; broth microdilution, Neisseria gonorrhoeae ATCC 19424, read-out: MIC
  MIC: 2 µg/mL (≈ 6.64 µM)
[6]
  MIC: 8 µg/mL (≈ 26.6 µM)
[7]; broth microdilution, Salmonella typhimurium ATCC 14028, read-out: MIC
  MIC: 32 µg/mL (≈ 106 µM)
[8]; broth microdilution, Micrococcus pyogenes ATCC 11631, read-out: MIC
  MIC: 32 µg/mL (≈ 106 µM)
[9]; broth microdilution, Klebsiella pneumonia ATCC 10031, read-out: MIC
  MIC: 16 µg/mL (≈ 53.1 µM)
[10]; broth microdilution, Escherichia coli ATCC 11775, read-out: MIC
  MIC: 16 µg/mL (≈ 53.1 µM)
[11]
  MIC: 16 µg/mL (≈ 53.1 µM)
[12]; broth microdilution, Proteus mirabilis ATCC 14153, read-out: MIC
  MIC: 8 µg/mL (≈ 26.6 µM)

## CSCC1CN(/N=C/c2ccc([N+](=O)[O-])o2)C(=O)O1 (stereo not drawn) [Nifuratel]
[1]; [18]
  C0: 798 ng/mL
  T1/7: 24 min
  Tlast: 120 min
  concentration at 120 min: 5 ng/mL
[1]; [19]
  Cmax: 8 ng/mL
  Tmax: 30 min
[1]; rat, in vivo, iv, 2 mg/kg
  Vss: 4.5 kg⁻¹
[2]; in vivo, po
  detection of parent compound in urine samples: not detected
[3]; Lactobacillus iners
  MIC: 16 µg/mL (≈ 56.1 µM)
Gardnerella vaginalis; ATCC14018, agar dilution, strain ATCC 14018
  MIC: 2 µg/mL (≈ 7.01 µM)
Gardnerella vaginalis; agar dilution, strain C2
  MIC: 8 µg/mL (≈ 28 µM)
Gardnerella vaginalis; agar dilution, strain D2
  MIC: 4 µg/mL (≈ 14 µM)
Gardnerella vaginalis; agar dilution, strain E2
  MIC: 2 µg/mL (≈ 7.01 µM)
Gardnerella vaginalis; agar dilution, strain G2
  MIC: 2 µg/mL (≈ 7.01 µM)
Gardnerella vaginalis; agar dilution, strain H2
  MIC: 1 µg/mL (≈ 3.51 µM)
Gardnerella vaginalis; agar dilution, strain J2
  MIC: 2 µg/mL (≈ 7.01 µM)
Gardnerella vaginalis; agar dilution, strain K2
  MIC: 4 µg/mL (≈ 14 µM)
Atopobium vaginae; CCUG38953
  MIC: 0.125 µg/mL (≈ 0.438 µM)
Atopobium vaginae; CCUG39382
  MIC: 0.25 µg/mL (≈ 0.876 µM)
Atopobium vaginae; CCUG42099
  MIC: 0.5 µg/mL (≈ 1.75 µM)
Atopobium vaginae; CCUG43049
  MIC: 0.25 µg/mL (≈ 0.876 µM)
Atopobium vaginae; CCUG44061
  MIC: 0.5 µg/mL (≈ 1.75 µM)
Atopobium vaginae; CCUG44156
  MIC: 0.5 µg/mL (≈ 1.75 µM)
Atopobium vaginae; CCUG48515
  MIC: 1 µg/mL (≈ 3.51 µM)
Atopobium vaginae; CCUG55226
  MIC: 1 µg/mL (≈ 3.51 µM)
Atopobium vaginae; CCUG55227
  MIC: 0.25 µg/mL (≈ 0.876 µM)
[4]; Staphylococcus aureus, MRSA
  MIC: 2 µg/mL (≈ 7.01 µM)
[5]; Neisseria gonorrhoeae
  MIC: 0.25 µg/mL (≈ 0.876 µM)
[6]
  MIC: 2 µg/mL (≈ 7.01 µM)
[7]
  MIC: 4 µg/mL (≈ 14 µM)
[8]
  MIC: 1 µg/mL (≈ 3.51 µM)
[9]
  MIC: 2 µg/mL (≈ 7.01 µM)
[10]; Escherichia coli
  MIC: 1 µg/mL (≈ 3.51 µM)
[11]
  MIC: 1 µg/mL (≈ 3.51 µM)
[12]; Proteus mirabilis
  MIC: 8 µg/mL (≈ 28 µM)
